What was measured:
pancreatic lipase = details: Minich, col. 4, lines 62-64; cited from earlier work
[1] = test system: porcine pancreatic lipase; assay: in vitro digestibility using pancreatic lipase; format: in vitro ADME; details: 37° C., pH 7.1
Experimental: This example outlines the procedure for estimating the in vitro digestibility of the synthetic fat mimetics of this invention using pancreatic lipase.
1. Buffer: A pH 7.1 phosphate buffer is prepared by dissolving 6.8 g. KH2 PO4 in 1 L. of millipore filtered water (to yield 0.05M phosphate). Fifty mg. Ca(NO3)2 and 5.0 g. cholic acid (Na salt, an ox bile isolate from Sigma) are added to give 300 microM Ca^++ and 0.5% cholic acid in 0.05M phosphate. The pH is adjusted to approximately 7.1 with solid NaOH. Several drops of Baker "Resi-analyzed" toluene are added to prevent bacterial growth during storage at 3°-5° C.
2. Lipase: About 15 mg./mL commercial porcine pancreatic lipase from U.S. Biochemical Corporation is dissolved in buffer.
3. Substrates and Standards: A 1.0 mL volumetric flask is charged with an amount of lipid substrate (test substance or standard) calculated to give a concentration of 200 nanomoles per microliter in Baker "Resi-analyzed" toluene. (The proper concentration may be approximated by […] the molecular weight of the lipid in question, dividing by 10, and diluting to the mark; this yields about 200 nanomoles per microliter.) This preparation affords the substrate to be used in the hydrolysis reactions. […]

[2] = in vivo animal feeding study for caloric availability; parameters: species or system male Sprague-Dawley rats; details: rats, diet of 50% fort and 21% test compound, 14 days
Text: This example illustrates how the novel fat mimetics of this invention are screened for caloric availability by a carefully controlled in vivo animal feeding study.
An experimental relationship between total calories ingested and animal body weight gain is established by monitoring the body weight gain associated with consumption of a nutritionally balanced diet containing varying concentrations of a reference substance such as corn oil which has a known caloric availability. Correlations between total calories ingested and body weight gain are excellent (r=0.99).
Caloric availability of an unknown substance is evaluated by substituting a specific weight of the unknown substance for the reference substance and observing the body weight gain. The gain in body weight is equated to a total number of calories using the correlation previously established for the reference data. The estimated number of calories ingested are divided by the weight of unknown substance to give the apparent calories per gram for the unknown substance. Generally speaking, in these bioavailability studies, the degree of perianal pelt soiling correlates with reduced bioavailability.
The test animals are six-week-old male Sprague-Dawley rats obtained from the Portage, Mich. facility of the Charles River Laboratories, Inc. After acclamation for 15 days, the test duration is 14 days. […]

[3] = rat, in vivo; cited from earlier work

## CCCCCCCC(=O)OCC(COC(=O)CCCCCCC)(COC(=O)CCCCCCC)COC(=O)CCCCCCC [pentaerythritol tetracaprylate]
Pancreatic lipase
  hydrolysis by pancreatic lipase: not attacked, hydrolyzed

## CCCCCCCC/C=C\CCCCCCCC(=O)OCC(C)(COC(=O)CCCCCCC/C=C\CCCCCCCC)COC(=O)CCCCCCC/C=C\CCCCCCCC [Example 1, 1,1,1-Tris hydroxymethylethane trioleate]
[1]; after three hours contact with pancreatic lipase
  hydrolysis by pancreatic lipase: limited hydrolysis
[2]
  caloric availability upon being metabolized: about 3.3 kcal/gram

## corn oil
[3]
  caloric availability of reference: 9.0 calories/gram

## CCCCCCCC/C=C\CCCCCCCC(=O)OCC(COC(=O)CCCCCCC/C=C\CCCCCCCC)OC(=O)CCCCCCC/C=C\CCCCCCCC [triolein]
[1]; triglyceride control, in 10 minutes
  hydrolysis by pancreatic lipase: substantially hydrolyzed

Reference: patent US4927658A, “Tris-hydroxymethyl alkane esters as low calorie fat mimetics” (Nabisco Brands, Inc., priority 1989, dated 1990)
